Columns and labels:
Format in all cases: in vivo, human
[1] = tested on: alpha-1-antitrypsin (A1AT); assay: ELISA of A1AT in large HDL fraction and in plasma
Text: FIG. 5A-5C. Quantitative measurement of alpha-1-antitrypsin on HDL and in plasma. (FIG. 5A) Individual patient spectral counts for alpha-1-antitrypsin (A1AT) in large HDL at baseline (T0) and after 28 days (T28) of rosuvastatin treatment, n=10 for each time point. The “n=5” indicator points to data from 5 subjects with a high degree of overlap. (FIG. 5B) Quantitative measurement of A1AT in large HDL by ELISA assay. (FIG. 5C) Time course of plasma A1AT concentrations during rosuvastatin treatment and after two-week washout period (Day 42 time point). * indicates p<0.05 and ** indicates p<0.01 compared to T0.
To more quantitatively evaluate the change in A1AT levels observed in the MS data, we performed ELISA assays to measure A1AT in the large HDL fractions from all subjects.
In addition to measuring the A1AT content of large HDL, we also measured total A1AT in plasma. There was a clear trend of increasing plasma A1AT while on treatment and a return to baseline after a two week treatment washout, this effect was relatively small, approximately 10% (FIG. 5c). […] We calculated an A1AT:HDL-particle ratio (mol:mol) of about 1:100 at baseline and 1:25 after rosuvastatin treatment.

[2] = Clinical pilot study: lipoprotein particle numbers by nuclear magnetic resonance; conditions: 20 mg/day, 28 days vs baseline
Experimental: FIG. 1A-1C. Effect of rosuvastatin on plasma lipids and lipoprotein particle numbers. (FIG. 1A) Rosuvastatin effects on total plasma lipid levels (TC=total cholesterol; HDL-C=HDL cholesterol; LDL-C=LDL cholesterol; TG=triglyceride). The effect of rosuvastatin on LDL particle number (FIG. 1B) and HDL particle number (FIG. 1C) were measured by nuclear magnetic resonance. T0 and […] are time points indicating baseline and after 28 days of rosuvastatin treatment, respectively. Data are mean±standard deviation. * indicates p<0.01. Fasting blood samples were obtained from ten healthy volunteers participating in a study of the NIH Center for Human Immunology, intended to evaluate effects of a statin on the immune system. This protocol was approved by the institutional review board of the National Heart, Lung, and Blood Institute (NHLBI) and registered at clinicaltrials.gov (NCT01200836); all participants provided written informed consent. Three males and seven females were enrolled, with an average age of 44.1±11 years. Participants were selected to have normal LDL-C (<130 mg/dL) and were not on any lipid modification therapy prior to the study. […] HDL-C was measured by a direct assay (Siemens) and LDL-C was determined by the Friedewald equation. Lipoprotein particle numbers and average particle sizes were determined from heparinized plasma on a […] […]

[3] = Clinical pilot study: plasma lipids before and after rosuvastatin; conditions: 28 days vs baseline
Experimental: This Example describes a small clinical pilot study which assessed the impact of statins on lipoprotein-associated proteins in healthy individuals (n=10) with normal LDL-C (<130 mg/dL), who were treated with the statin rosuvastatin (available commercially as Crestor®) (20 mg/day) for 28 days. Proteomic analysis of size-exclusion chromatography isolated LDL, HDL-L (large) and HDL-S (small) fractions and spectral counting was used to compare relative protein detection before and after statin therapy. Significant protein changes were found in each lipoprotein pool and included both increases and decreases in several proteins involved in lipoprotein metabolism, complement regulation, and acute phase response. Fasting blood samples were obtained from ten healthy volunteers participating in a study of the NIH Center for Human Immunology, intended to evaluate effects of a statin on the immune system. This protocol was approved by the institutional review board of the National Heart, Lung, and Blood Institute (NHLBI) and registered at clinicaltrials.gov (NCT01200836); all participants provided written informed consent. Three males and seven females were enrolled, with an average age of 44.1±11 years. Participants were selected to have normal LDL-C (<130 mg/dL) and were not on any lipid modification therapy prior to the study. Recruited participants were given rosuvastatin (20 mg/day) for 28 days. Blood was collected by venipuncture at the following time points: baseline, 14 and 28 days after rosuvastatin treatment, and 14 days after stopping treatment (washout). Samples were stored at -20° C. Because samples were taken from each participant at baseline and on-treatment, each subject acted as their own control. Lipid and lipoprotein assays were performed on a Siemens Dimension Vista analyzer, using standard enzymatic assays. HDL-C was measured by a direct assay (Siemens) and LDL-C was determined by the Friedewald equation. Lipoprotein particle numbers and average particle sizes were determined from heparinized plasma on a […] Clinical Analyzer (LipoScience).

## CC(C)c1nc(N(C)S(C)(=O)=O)nc(-c2ccc(F)cc2)c1/C=C/[C@@H](O)C[C@@H](O)CC(=O)O [rosuvastatin]
[1]; ELISA, high responders, range
  elevation of A1AT in large HDL fraction, high responders: 5-18 fold
[1]; ELISA, low-responders, range
  increase in A1AT levels in large HDL fraction, low-responders: 6-36%
[1]; HDL-L, 28 days vs baseline, all subjects
  average increase in HDL-L associated A1AT by ELISA: 5.7 fold
[1]; estimated from A1AT content of HDL-L and plasma, baseline 0.84±0.037%
  fraction of total A1AT bound to HDL after therapy: approximately 4.54±1.73%
[1]; plasma, return to baseline after two week washout
  increase of total plasma A1AT while on treatment: approximately 10%
[2]; not statistically significant
  increase of HDL-p: 6.2%
[2]; p<0.001
  reduction of LDL particle number (LDL-p): 51%
[3]; 20 mg/day, not statistically significant
  increase of HDL-C: 3.6%
[3]; 20 mg/day, p<0.001
  change in LDL-C: −50%
[3]; 20 mg/day, p<0.01
  change in triglyceride: −29%
[3]; healthy subjects n=10, 20 mg/day, p<0.001
  change in total cholesterol: −28%

Source: US11872261B2, “Lipoprotein targeting protease inhibitors and uses” (The United States of America, as represented by the …, priority 2016, dated 2024)
